This is an account of results in publication PMC3895464 (Bioorganic & medicinal chemistry, 2013).

Structures are written as SMILES.

The test system of series [1] is HT29, HCA-7 and Apc10.1 cells. The experiment in a line: Cell growth assays, IC50 ranges over the three cell lines. To be noted: read-out: IC50 values (tumor cell survival). Type of series: cell-based.
The test system of series [2] is COX-2 and 5-LOX expression in HT29 cells. The experiment in a line: COX-2 and 5-LOX expression in HT29 cells. Type of series: cell-based, human. To be noted: Figure 2B.
Series [3] has as its system pre-neoplastic Apc10.1 cells. The series can be described thus: MTT assay on pre-neoplastic Apc10.1 cells. Type of series: cell-based. The settings on record: Apc10.1, 24 h. For orientation: Tetrazolium dyes change colour on reduction, which living cells bring about.
Series [4] deals with Apc10.1 cells. The series can be described thus: Cell proliferation assay. Type of series: cell-based, mice. To be noted: Mus musculus, read-out: IC50 cell proliferation, Apc10.1, Has2 −.
For series [5], the system named is HCA-7 cells. The series can be described thus: Cell proliferation assay. Type of series: cell-based. To be noted: Homo sapiens, HCA-7, read-out: IC50 cell proliferation, HCA-7, Has2 −.
Series [6] concerns HT29 cells. The experiment in a line: Cell proliferation assay. Type of series: cell-based. To be noted: Homo sapiens, HT-29, read-out: IC50 cell proliferation, HT29, Has2 −.

Turning to `CC(C)(C)C1=CC(=NNC(=O)c2ccccc2)C=C(C(C)(C)C)C1=O` [BQBH, N’- (3,5-di-tert-butyl-4-oxocyclohexa-2,5-dienylidene) benzohydrazide], the IC50 in series [1] fell in the range of 12 to 20 µM. Moreover, in series [2], the “COX-2 and 5-LOX levels” value is given as “substantial inhibition”.
As for `CC(C)(C)C1=CC(=NNC(=O)c2ccncc2)C=C(C(C)(C)C)C1=O` [BQIH, N’- (3,5-di-tert-butyl-4-oxocyclohexa-2,5-dienylidene) isonicotinohydrazide], the IC50 in series [1] fell in the range of 12 to 20 µM. In series [2], the “COX-2 and 5-LOX levels” value is recorded as “substantial inhibition”.
`CC(C)(C)C1=CC(=NNC(=O)c2cccnc2)C=C(C(C)(C)C)C1=O` [BQNH, N’- (3,5-di-tert-butyl-4-oxocyclohexa-2,5-dienylidene) nicotinohydrazide]: the “cytotoxic activity (MTT)” value in series [3] is reported as “reasonable cytotoxic activity”. Also, the IC50 in series [1] was 6.5 to 11 µM. Also, the “COX-2 and 5-LOX levels” value in series [2] is given as “substantial inhibition”.
For `Cc1ccc(-c2cc(C(F)(F)F)nn2-c2ccc(S(N)(=O)=O)cc2)cc1` [Celecoxib, reference compound], in series [1], the IC50 was in the range of 2 to 4.2 µM.
`CC1(C)Cc2c(-c3ccccc3)c(-c3ccc(Cl)cc3)c(CC(=O)O)n2C1` [Licofelone, [6-(4-chlorophenyl)-2,2-dimethyl-7-phenyl-2,3-dihydro-1H-pyrrolizin-5-yl]acetic acid]: the IC50 in series [4] was 45 ± 7.2 µM; in series [5], 48 ± 5.2 µM; in series [6], 75 ± 8.3 µM; in series [1] it was 45 to 75 µM. Besides, in series [2], the “COX-2 and 5-LOX levels” value is recorded as “substantial inhibition”.
